Target: T1, integrin α4β1 (Homo sapiens, UniProt P05556+P13612)
T1 construct: expressed on the MOLT-4 cell membrane; host or cells: MOLT-4 human T-lymphoblastic leukaemia cells
Assay: MOLT-4 cell/Fibronectin adhesion assay
Format: cell-based
Settings: MOLT-4 cells on fibronectin-coated plates, 2 h at 37° C., acid phosphatase readout; read-out: inhibitor of MOLT-4 cell adhesion to fibronectin (concentration at which compound is an inhibitor)
From the text: MOLT-4 cells—human T-lymphoblastic leukaemia cells (European Collection of Animal Cell Cultures, Porton Down)
Fibronectin—purified from human plasma by gelatin-sepharose affinity chromatography according to the methods described in E. Nengvall, E. Ruoslahti, Int. J. Cancer, 1977, 20, pages 1-5 and J. Forsyth et al, Methods in Enzymology, 1992, 215, pages 311-316).
1.1.1 MOLT-4 cell/Fibronectin adhesion assay.
The MOLT-4 cell/fibronectin adhesion assay was used to investigate the interaction of the integrin α4-β1expressed on the MOLT-4 cell membrane with fibronectin. Polystyrene 96 well plates were coated overnight at 4° C. with fibronectin, 100 μl of 10 μg/ml in PBS. Non-specific adhesion sites were blocked by adding 100 μl BSA, 20 mg/ml. After incubating for 1 h at room temperature, the solutions were aspirated. […] Adherent cells were quantified by a colorimetric acid phosphatase assay. […] After incubation for 1 h at 37° C., 50 μl sodium hydroxide (1M) was added to each well and the absorbance 405 nm was measured on a microplate spectrophotometer. Compounds which inhibited adhesion gave a lower absorbance reading. […] Percentage inhibition was calculated with respect to total (no inhibitor) and non-specific (no fibronectin) standards on each plate.

T1 sequence (P13612 34-1032): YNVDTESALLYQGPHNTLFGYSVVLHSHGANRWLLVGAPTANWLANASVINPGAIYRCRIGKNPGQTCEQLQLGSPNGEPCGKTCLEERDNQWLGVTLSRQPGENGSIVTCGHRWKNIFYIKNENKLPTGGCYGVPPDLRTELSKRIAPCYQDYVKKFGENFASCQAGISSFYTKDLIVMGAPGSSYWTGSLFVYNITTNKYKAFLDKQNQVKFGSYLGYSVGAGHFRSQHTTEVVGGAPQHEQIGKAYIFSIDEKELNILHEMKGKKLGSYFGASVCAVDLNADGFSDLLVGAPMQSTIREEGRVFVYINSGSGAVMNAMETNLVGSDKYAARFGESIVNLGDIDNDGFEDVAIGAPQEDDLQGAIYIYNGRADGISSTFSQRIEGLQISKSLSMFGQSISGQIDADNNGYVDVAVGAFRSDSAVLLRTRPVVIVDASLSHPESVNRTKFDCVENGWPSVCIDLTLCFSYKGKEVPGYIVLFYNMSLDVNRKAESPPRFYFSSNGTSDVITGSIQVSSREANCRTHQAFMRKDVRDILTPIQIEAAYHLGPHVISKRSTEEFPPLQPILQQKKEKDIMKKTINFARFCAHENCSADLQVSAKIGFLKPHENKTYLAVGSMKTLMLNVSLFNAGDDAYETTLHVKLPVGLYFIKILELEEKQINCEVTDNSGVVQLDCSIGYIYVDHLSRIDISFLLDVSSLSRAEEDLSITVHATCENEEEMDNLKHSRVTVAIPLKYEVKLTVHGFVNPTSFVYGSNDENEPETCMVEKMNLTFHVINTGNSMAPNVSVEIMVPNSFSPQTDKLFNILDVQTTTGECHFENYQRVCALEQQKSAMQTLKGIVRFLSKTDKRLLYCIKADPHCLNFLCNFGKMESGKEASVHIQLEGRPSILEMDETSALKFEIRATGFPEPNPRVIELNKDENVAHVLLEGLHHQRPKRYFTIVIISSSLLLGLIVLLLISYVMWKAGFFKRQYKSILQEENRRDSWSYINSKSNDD
T1 sequence (P05556 21-798): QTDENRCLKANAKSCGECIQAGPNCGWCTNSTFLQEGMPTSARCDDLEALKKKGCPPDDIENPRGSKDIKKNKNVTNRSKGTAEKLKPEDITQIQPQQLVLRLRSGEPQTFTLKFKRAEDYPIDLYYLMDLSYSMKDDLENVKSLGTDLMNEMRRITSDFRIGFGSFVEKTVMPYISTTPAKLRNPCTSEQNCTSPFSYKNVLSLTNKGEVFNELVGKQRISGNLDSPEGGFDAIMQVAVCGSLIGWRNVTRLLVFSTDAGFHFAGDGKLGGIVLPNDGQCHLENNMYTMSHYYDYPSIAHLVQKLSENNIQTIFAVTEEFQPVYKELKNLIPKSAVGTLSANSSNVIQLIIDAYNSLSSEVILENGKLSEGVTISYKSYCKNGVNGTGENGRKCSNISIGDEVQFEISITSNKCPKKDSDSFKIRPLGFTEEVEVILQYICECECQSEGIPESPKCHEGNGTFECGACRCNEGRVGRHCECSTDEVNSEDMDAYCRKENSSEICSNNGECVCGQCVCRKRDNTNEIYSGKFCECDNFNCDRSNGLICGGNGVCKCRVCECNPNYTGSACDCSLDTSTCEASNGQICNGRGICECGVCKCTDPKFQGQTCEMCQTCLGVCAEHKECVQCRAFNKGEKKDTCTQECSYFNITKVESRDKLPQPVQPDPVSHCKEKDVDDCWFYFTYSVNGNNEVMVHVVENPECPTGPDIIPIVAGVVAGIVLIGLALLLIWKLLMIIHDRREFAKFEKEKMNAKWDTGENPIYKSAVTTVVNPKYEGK

Row | IC50 [nM] | Structure (SMILES)
1 | 87 | Cc1ccccc1NC(=O)Nc1ccc(CC(=O)Nc2ccc(OCCN3CCCCC3)c(OCCCC(=O)O)c2)cc1 [Compound 1]
2 | 84 | Cc1ccccc1NC(=O)Nc1ccc(CC(=O)Nc2ccc(OCCCN3CCCC3)c(OCCCC(=O)O)c2)cc1 [Compound 2]
